Assay results taken from patent publication US5244915A, “Amico acid derivatives cyclized at the C-terminal” (Warner-Lambert Company, priority 1991, dated 1993).

Legend:
CCK B = target: T1, CCK B (Mus musculus, UniProt P56481); test: CCK receptor binding, displacement of tritiated-pentagastrin from cerebral cortical membranes (CCK B); set-up: species or system mouse (male CFLP); conditions: mouse cerebral cortex membranes, 2 nM tritiated-pentagastrin
T1 construct: from tissue; host or cells: cerebral cortex of male CFLP mice (30-40 g), washed membranes
T1 sequence (P56481 1-453): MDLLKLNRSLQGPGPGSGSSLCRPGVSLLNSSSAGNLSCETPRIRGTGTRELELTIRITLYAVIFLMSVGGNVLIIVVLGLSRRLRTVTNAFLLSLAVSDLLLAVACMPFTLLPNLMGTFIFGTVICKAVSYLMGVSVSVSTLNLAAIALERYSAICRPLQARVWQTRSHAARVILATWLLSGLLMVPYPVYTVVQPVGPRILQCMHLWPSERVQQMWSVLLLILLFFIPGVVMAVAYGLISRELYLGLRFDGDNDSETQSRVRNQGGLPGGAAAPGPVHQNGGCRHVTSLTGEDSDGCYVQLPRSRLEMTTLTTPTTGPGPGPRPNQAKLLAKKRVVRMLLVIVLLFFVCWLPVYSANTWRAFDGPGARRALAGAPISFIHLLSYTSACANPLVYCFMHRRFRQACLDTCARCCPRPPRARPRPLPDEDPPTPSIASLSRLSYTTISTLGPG
Description: (§1) The biological activity of compounds of the present invention was evaluated employing an initial screening test which rapidly and accurately measured the binding of the tested compound to known CCK receptor sites. […] (See Hays et al, Neuropeptides 1:53-62, 1980; and Satuer et al, Science 208:1155-1156, 1980.
In this screening test, the cerebral cortices taken from male CFLP mice weighing between 30-40 g were dissected on ice, weighed, and homogenized in 10 volumes of 50 mM Tris-HCl buffer (pH 7.4 at 0°-4° C.). The resulting suspension was centrifuged, the supernate was discarded, and the pellet was washed by resuspension in Tris-HCl buffer followed by recentrifugation. The final pellet was resuspended in 20 volumes of […] buffer (pH 7.2 at 23° C.) containing 130 mM NaCl, […], […], […], 5 mg/mL bovine albumin, and bacitracin (0.25 mg/ml).
In saturation studies, cerebral cortical membranes were incubated at 23° C. for 120 minutes in a final volume of 500 μliter of Hepes incubation buffer (pH 7.2) together with 0.2-20 nM tritiated-pentagastrin (Amersham International, England).
In the displacement experiments, membranes were incubated with a single concentration (2 nM) of ligand, together with increasing concentrations (10^-11 to […]) of competitive test compound. In each case, the nonspecific binding was defined as that persisting in the presence of the unlabeled octapeptide CCK26-33 (10^-6 M).
Following incubation, radioactivity bound to membranes was separated from that free in solution by rapid filtration through Whatman GF/B filters and washed three times with 4 mL of ice cold Tris-HCl buffer. Filters from samples incubated with tritiated-pentagastrin were placed in polyethylene vials with 4 mL of scintillation cocktail, and the radioactivity was estimated by liquid scintillation spectrometry (efficiency 47-52%).
The specific binding to CCK receptor sites was defined as the total bound tritiated-pentagastrin minus the amount of tritiated-pentagastrin bound in the presence of 10^-6 octapeptide, CCK 26-33.
Saturation curves for specific tritiated-pentagastrin binding to mouse cortical membranes were analyzed by the methods of Scatchard (Ann. New York Acad. Sci. 51:660-672, 1949, and Hill (J. Phvsiol. 40:IV-VIII, 1910, to provide estimates for the maximum number of binding sites (Bmax) and the equilibrium dissociation constant (Ka).
In displacement experiments, inhibition curves were analyzed by either logit-log plots or the iterative curve fitting computer program ALLFIT (DeLean, Munson and Redbard, 1978) to provide estimates of the IC50 and nH (apparent Hill coefficient) values). (IC50 values were defined as the concentration of test compound required to produce 50% inhibition of specific binding.)
(§2) The inhibition constant (Ki) of the test compound was then calculated according to the Cheng-Prusoff equation: [formula] where [L] is the concentration of radiolabel and Ka is the equilibrium dissociation constant.

CCK A = test: CCK receptor binding (CCK A); conditions: assay not described
Description: as §1, §2

A Ki (CCK B) of 45 nM and a Ki (CCK A) of 5.22 µM were found for `CC(Cc1c[nH]c2ccccc12)(NC(=O)OC1C2CC3CC(C2)CC1C3)C(=O)NC1CCCc2ccccc21` (racemic) [Compound 6, Carbamic acid, [1-(1H-indol-3-ylmethyl)-1-methyl-2-oxo-2-[(1,2,3,4-tetrahydro-1-naphthalenyl)amino]ethyl]-, tricyclo[3.3.1.1^3,7]-dec-2-yl ester, (±)-] in this work.

A Ki (CCK B) of 330 nM was found for `CC(Cc1c[nH]c2ccccc12)(NC(=O)OC1C2CC3CC(C2)CC1C3)C(=O)NC1CCc2ccccc2C1` (racemic) [Compound 7, Carbamic acid, [1-1H-indol-3-ylmethyl)-1-methyl-2-oxo-2 [(1,2,3,4-tetrahydro-2-naphthalenyl)amino]ethyl]-, tricyclo[3.3.1.1^3,7]-dec-2-yl ester, (±)-] in this work.

A Ki (CCK B) of 94 nM and a Ki (CCK A) of 7.62 µM were found for `CC1(C)[C@H]2CC[C@]1(C)[C@H](OC(=O)N[C@](C)(Cc1c[nH]c3ccccc13)C(=O)NC1CCc3ccccc3C1=O)C2` (single isomer, unassigned) [Compound 4, Carbamic acid, [1-(1H-indol-3-ylmethyl)-1 methyl-2-oxo-2-[(1,2,3,4-tetrahydro-1-oxo 2-naphthalenyl)amino]ethyl]-, 1,7,7-trimethyl-bicyclo[2.2.1]hept-2-yl ester] in this work.

A Ki (CCK B) of 59 nM was found for `CC1(C)[C@H]2CC[C@]1(C)[C@H](OC(=O)N[C@](C)(Cc1c[nH]c3ccccc13)C(=O)NC1CCc3ccccc3C1=O)C2` (single isomer, unassigned) [Compound 5, Carbamic acid, [1-(1H-indol-3 ylmethyl)-1-methyl-2-oxo-2-[(1-2,3,4-tetrahydro-1-oxo-2-naphthalenyl)amino]ethyl]-, 1,7,7-trimethylbicyclo[2.2.1.1]hept-2-yl ester] in this work.

A Ki (CCK B) of 280 nM was found for `CC1(C)[C@H]2CC[C@]1(C)[C@H](OC(=O)N[C@](C)(Cc1c[nH]c3ccccc13)C(=O)NC1c3ccccc3CC1O)C2` (stereo partly drawn) [Compound 1, Carbamic acid, [2-[(2,3-dihydro-2-hydroxy-1H-inden-1-yl)amino]-1-(1H-indol-3-ylmethyl)-1-methyl-2-oxoethyl]-, 1,7,7-trimethylbicyclo-[2.2.1]hept 2-yl ester] in this work.

A Ki (CCK B) of 111 nM and a Ki (CCK A) of 5.3 µM were found for `CC1(C)[C@H]2CC[C@]1(C)[C@H](OC(=O)N[C@](C)(Cc1c[nH]c3ccccc13)C(=O)N[C@H]1Cc3ccccc3[C@@H]1O)C2` [Compound 2, Carbamic acid, [2-[(2,3-dihydro-1-hydroxy-1H-inden-2-yl)amino]-1-1H-indol-3-ylmethyl)-2-methyl-2-oxoethyl]-, 1,7,7-trimethylbicyclo-[2.2.1]hept-2-yl ester, [1S*[1α,2β[S-(trans)],4α]]-] in this work.

A Ki (CCK B) of 30 nM and a Ki (CCK A) of 3.87 µM were found for `CC1(C)[C@H]2CC[C@]1(C)[C@H](OC(=O)N[C@](C)(Cc1c[nH]c3ccccc13)C(=O)N[C@@H]1Cc3ccccc3[C@H]1O)C2` [Compound 3, Carbamic acid, [2-[(2,3-dihydro 1-hydroxy-1H-inden-2-yl)amino]-1-(1H-indol-3-ylmethyl)-1-methyl-2-oxoethyl]-, 1,7,7-trimethylbicyclo-[2.2.1]hept-2-yl ester, [1S-[1α,2β[S*(1S*,2S*)],4α]]-] in this work.

A Ki (CCK B) of 450 nM was found for `C[C@](Cc1c[nH]c2ccccc12)(NC(=O)OC1C2CC3CC(C2)CC1C3)C(=O)N1CCc2ccccc2C1` (stereo partly drawn) [Compound 8, Carbamic acid, [1-(1H-indol-3-ylmethyl)-1-methyl-2-oxo-2-(1,2,3,4-tetrahydro-2-isoquinolinyl)ethyl]-, tricyclo[3.3.1.1^3.7]-dec-2-yl ester, (R)-] in this work.
